Among the data in patent US11478526B2, “Methods of reducing neuroinflammation or toxicity induced by amyloid beta (abeta) using glucocorticoid induced leucine zipper (GILZ) analog peptides” (INDIANA UNIVERSITY RESEARCH AND TECHNOLOGY CORPORATION, priority 2016, dated 2022) are IC50 values, retold here.

Where two headings read alike, the source gives them in different places.

The subject of this assay is U373 cells. Format: cell-based, human. The method, then: Lactate dehydrogenase (LDH) assay: To detect direct GA-induced cell lysis we performed LDH release assays (Roche Molecular Diagnostics). […] Approximately 5×10^4 U373 cells/well were cultured in 96-well plates in the presence of increasing concentrations of individual GA or control peptide from 0.5 μM to 500 μM. Cells treated with 2% triton-X 100 (Sigma Aldrich, St. Louis, Mo.) for 10 minutes served as positive control. Untreated cells served as controls for spontaneous LDH-release. Specific LDH-release was calculated according to the following formula: LDH-release %=100*(GA or control peptide treated cells—untreated cells)/(positive control-untreated cells). The IC50 values were extrapolated by logarithmic estimation. The LD50 in mg/kg was predicted using the formula, Log (LD50)=0.506×(log IC50)+0.475.
Effects of PGA on membrane integrity and apoptosis: The top five PGA were covalently synthesized with the cell penetrating TAT (transcriptional transactivation) peptide to facilitate intracellular delivery (Genescript, N.J.). Membrane integrity of U373 microglial cells exposed to increasing concentration of each PGA from 0.5 μm to 500 μM was assessed by the leakage of intracellular lactate dehydrogenase (LDH) into culture medium (Roche, Ind.).

The mark [1] stands for this setting: Example 9, PGA synthesized with TAT, read-out: IC50 of LDH release extrapolated from regression analysis.
The mark [2] stands for this setting: concentration stated for use in HFNC cultures, Example 11, read-out: IC50 concentration.

For Ac-EPAPLAPYG-NH2 [PGA-2], the IC50 was 1.95 µM under setting [1] and 169 µM under setting [2].
Regarding Ac-EPAPESPQV-NH2 [PGA-4], the IC50 is 1.5 µM under setting [1] and 102 µM under setting [2].
